Reference: article PMC12045974, “T cell toxicity induced by tigecycline binding to the mitochondrial ribosome” (Nature Communications, 2025)
Several values for one entry are separate records, joined by “and”; a condition that tells them apart may be missing. Equal values may be shown once. Read-outs that look alike come from different tables or passages of the source.

What was measured:
[1] = system: PBMCs; assay: Cell viability assay (CCK-8), PBMCs; type: cell-based, human; conditions: 72 h, PBMCs; for cell vialibity normalized to Vehicle (DMSO): in % (unit assumed)
Method: Buffy coats were ordered from anonymous blood donors at […]. […] Cells were seeded in 96-well plates ranging from 2000 to 15,000 cells per well depending on different cell lines and treated with antibiotics in serial dilutions for 72 h (120 h for the preliminary assays) in a humidified incubator (37 °C, 5% CO2) in 100 μl medium (DMEM with 10% FBS, 2.05 mM L-glutamine (Sigma) for Hek293 and Hela; RPMI-1640 with 10% FBS, 2.05 mM L-glutamine (Sigma), and 55 μM 2-ME (Gibco) for Jurkat T cells and PBMCs). Based on preliminary tests, the number of cells per well was optimized to 2000 for Hela and Hek293, 6000 for Jurkat T cells, and 15,000 for PBMCs. The stocks of antibiotics were prepared by dissolving in DMSO. As control, the same amount of DMSO was added to the non-treated groups. Serial drug dilutions were prepared in the corresponding medium to provide a total of 9 concentrations up to 300 μM for tetracyclines and up to 900 μM for additional bacterial protein synthesis inhibitors. After drug treatment, 10% CCK-8 (Cell Counting Kit-8, Sigma Aldrich) (10 μl per well) of the total volume was added to the cells and incubated for 1-4 h depending on cell lines (1 h for Hela and Hek293; 3 h for Jurkat T cells; 4 h for PBMCs) before the evaluation of the effect of antibiotics on cell viability. […] Results were visually confirmed under the light microscope. Each treatment was performed in technical repeats. Dose-response curves were plotted, mean ± SEM was shown, and half maximal inhibitory concentration (IC50) values were calculated in GraphPad Prism.

[2] = system: Jurkat T cells; assay: Cell viability assay (CCK-8), Jurkat T cells; type: cell-based, human; conditions: Jurkat, 72 h, Fig. 1A, in % (unit assumed)
Method: Cells were seeded in 96-well plates ranging from 2000 to 15,000 cells per well depending on different cell lines and treated with antibiotics in serial dilutions for 72 h (120 h for the preliminary assays) in a humidified incubator (37 °C, 5% CO2) in 100 μl medium (DMEM with 10% FBS, 2.05 mM L-glutamine (Sigma) for Hek293 and Hela; RPMI-1640 with 10% FBS, 2.05 mM L-glutamine (Sigma), and 55 μM 2-ME (Gibco) for Jurkat T cells and PBMCs). Based on preliminary tests, the number of cells per well was optimized to 2000 for Hela and Hek293, 6000 for Jurkat T cells, and 15,000 for PBMCs. The stocks of antibiotics were prepared by dissolving in DMSO. As control, the same amount of DMSO was added to the non-treated groups. Serial drug dilutions were prepared in the corresponding medium to provide a total of 9 concentrations up to 300 μM for tetracyclines and up to 900 μM for additional bacterial protein synthesis inhibitors. After drug treatment, 10% CCK-8 (Cell Counting Kit-8, Sigma Aldrich) (10 μl per well) of the total volume was added to the cells and incubated for 1–4 h depending on cell lines (1 h for Hela and Hek293; 3 h for Jurkat T cells; 4 h for PBMCs) before the evaluation of the effect of antibiotics on cell viability. […] Results were visually confirmed under the light microscope. Each treatment was performed in technical repeats. Dose-response curves were plotted, mean ± SEM was shown, and half maximal inhibitory concentration (IC50) values were calculated in GraphPad Prism.

[3] = Homo sapiens, PBMC, dose 1.23457 μM, Fig. 1B, read-out: cell vialibity normalized to Vehicle (DMSO)
[4] = Homo sapiens, PBMC, dose 11.1111 μM, Fig. 1B, read-out: cell vialibity normalized to Vehicle (DMSO)
[5] = Homo sapiens, PBMC, dose 0.411523 μM, Fig. 1B, read-out: cell vialibity normalized to Vehicle (DMSO)
[6] = Homo sapiens, PBMC, dose 300 μM, Fig. 1B, read-out: cell vialibity normalized to Vehicle (DMSO)
[7] = Homo sapiens, PBMC, dose 0.0457247 μM, Fig. 1A, read-out: cell vialibity normalized to Vehicle (DMSO)
[8] = Homo sapiens, PBMC, dose 0.411523 μM, Fig. 1A, read-out: cell vialibity normalized to Vehicle (DMSO)
[9] = Homo sapiens, PBMC, dose 100 μM, Fig. 1A, read-out: cell vialibity normalized to Vehicle (DMSO)

Row | Compound | viability at 300 µM [1, 6] [%] | cell vialibity normalized to Vehicle (DMSO) ([2]; dose 0.0457247 μM) | cell vialibity normalized to Vehicle (DMSO) ([2]; dose 0.137174 μM) | cell vialibity normalized to Vehicle (DMSO) ([2]; dose 0.411523 μM) | cell vialibity normalized to Vehicle (DMSO) ([2]; dose 1.23457 μM) | cell vialibity normalized to Vehicle (DMSO) ([2]; dose 3.7037 μM) | cell vialibity normalized to Vehicle (DMSO) ([2]; dose 11.1111 μM) | cell vialibity normalized to Vehicle (DMSO) ([2]; dose 33.3333 μM) | cell vialibity normalized to Vehicle (DMSO) ([2]; dose 100 μM) | cell vialibity normalized to Vehicle (DMSO) ([2]; dose 300 μM) | viability at 0.0457247 µM [1, 7] [%] | viability at 100 µM [1, 9] [%] | further results
1 | CC[C@H]1OC(=O)[C@H](C)[C@@H](O[C@H]2C[C@@](C)(OC)[C@@H](O)[C@H](C)O2)[C@H](C)[C@@H](O[C@@H]2O[C@H](C)C[C@H](N(C)C)[C@H]2O)[C@](C)(O)C[C@@H](C)CN(C)[C@H](C)[C@@H](O)[C@]1(C)O [Azithromycin, azithromycin] | – | – | – | – | – | – | – | – | – | – | – | – | viability at 1.23457 µM [1, 3]: 91%; viability at 11.1111 µM [1, 4]: 82%
2 | CCC[C@@H]1C[C@@H](C(=O)N[C@@H]([C@H]2O[C@H](SC)[C@H](O)[C@@H](O)[C@H]2O)[C@H](C)Cl)N(C)C1 [Clindamycin, clindamycin] | 63 | – | – | – | – | – | – | – | – | – | – | – | viability at 0.137174 µM ([1]; Homo sapiens, PBMC, dose 0.137174 μM, Fig. 1B, read-out: cell vialibity normalized to Vehicle (DMSO)): 97%; viability at 0.411523 µM [1, 5]: 95.8%; viability at 1.23457 µM [1, 3]: 92.3%; viability at 11.1111 µM [1, 4]: 102%; viability at 100 µM ([1]; Homo sapiens, PBMC, dose 100 μM, Fig. 1B, read-out: cell vialibity normalized to Vehicle (DMSO)): 94.6%
3 | CC(=O)NC[C@H]1CN(c2ccc(N3CCOCC3)c(F)c2)C(=O)O1 [Linezolid, linezolid] | 24.4 | – | – | – | – | – | – | – | – | – | – | – | –
4 | C=C1c2cccc(O)c2C(=O)C2=C(O)[C@]3(O)C(=O)C(C(N)=O)=C(O)[C@@H](N(C)C)[C@@H]3[C@@H](O)[C@H]12 [Methacycline, methacycline] | – | 104.711 and 102.732 and 106.75 | 102.378 and 109.807 and 118.32 | 103.32 and 108.822 and 104.75 | 108.031 and 101.209 and 106 | 100.628 and 106.046 and 105.75 | 118.035 and 121.182 and 107.162 | 32.5707 and 32.2436 and 34.2424 | 20.0538 and 20.6001 and 28.3196 | 11.2607 and 14.1961 and 17.0248 | 105 | 30 | viability at 0.411523 µM [1, 8]: 102%
5 | CN(C)c1ccc(O)c2c1C[C@H]1C[C@H]3[C@H](N(C)C)C(O)=C(C(N)=O)C(=O)[C@@]3(O)C(O)=C1C2=O [Minocycline, minocycline] | – | 100.385 and 100.531 and 101.165 | – | 98.2906 and 97.4244 and 90.1654 | 99.8718 and 96.2387 and 90.2372 | 105.513 and 101.758 and 90.3163 | 49.6581 and 44.3173 and 49.0295 | 19.6154 and 18.6836 and 25.6578 | 12.3932 and 10.5887 and 15.9454 | 6.111 and 6.95 and 5.018 | 97.4 | 46.6 | viability at 0.137174 µM ([1]; Homo sapiens, PBMC, dose 0.137174 μM, Fig. 1A, read-out: cell vialibity normalized to Vehicle (DMSO)): 98.5%; viability at 0.411523 µM [1, 8]: 100%; viability at 1.23457 µM ([1]; Homo sapiens, PBMC, dose 1.23457 μM, Fig. 1A, read-out: cell vialibity normalized to Vehicle (DMSO)): 95.2%; viability at 3.7037 µM ([1]; Homo sapiens, PBMC, dose 3.7037 μM, Fig. 1A, read-out: cell vialibity normalized to Vehicle (DMSO)): 91.6%; viability at 11.1111 µM ([1]; Homo sapiens, PBMC, dose 11.1111 μM, Fig. 1A, read-out: cell vialibity normalized to Vehicle (DMSO)): 87.6%; viability at 33.3333 µM ([1]; Homo sapiens, PBMC, dose 33.3333 μM, Fig. 1A, read-out: cell vialibity normalized to Vehicle (DMSO)): 81.2%
6 | CN(C)[C@@H]1C(O)=C(C(N)=O)C(=O)[C@@]2(O)C(O)=C3C(=O)c4c(O)cccc4[C@@](C)(O)[C@H]3C[C@@H]12 [Tetracycline, tetracycline] | – | 102.181 and 108.663 and 114.096 | 99.1611 and 103.998 and 102.471 | 100 and 102.207 and 96 | 99.3708 and 109.246 and 98.7059 | 100.377 and 106.955 and 130.118 | 115.478 and 121.824 and 122.353 | – | 13.3809 and 13.536 and 12.3529 | – | 96 | 42.5 | viability at 300 µM ([1]; Homo sapiens, PBMC, dose 300 μM, Fig. 1A, read-out: cell vialibity normalized to Vehicle (DMSO)): 28.2%
7 | C=C[C@]1(C)C[C@@H](OC(=O)CSCCN(CC)CC)[C@]2(C)[C@H](C)CC[C@]3(CCC(=O)[C@H]32)[C@@H](C)[C@@H]1O [Tiamulin, tiamulin] | 7.89 | – | – | – | – | – | – | – | – | – | – | – | viability at 0.411523 µM [1, 5]: 103%; viability at 900 µM ([1]; Homo sapiens, PBMC, dose 900 μM, Fig. 1B, read-out: cell vialibity normalized to Vehicle (DMSO)): 3.99%
8 | medocycline | – | 102.989 and 99.9557 and 109.669 | 102.725 and 107.699 and 114.702 | 103.253 and 102.434 and 102.384 | 99.4725 and 91.8142 and 98.8083 | 86.4176 and 91.8584 and 75.4404 | 52.967 and 57.0354 and 39.5078 | 13.8022 and 14.0708 and 21.114 | 9.495 and 9.425 and 18.7824 | 7.165 and 7.743 and 8.238 | – | – | cell vialibity normalized to Vehicle (DMSO) ([1]; dose 0.0457247 μM, Fig. 1A): 99.3099 and 104.911 and 97.5874 and 111.701 and 85.5908; cell vialibity normalized to Vehicle (DMSO) ([1]; dose 0.137174 μM, Fig. 1A): 96.2044 and 113.924 and 98.007 and 101.337 and 91.5168; cell vialibity normalized to Vehicle (DMSO) ([1]; dose 0.411523 μM, Fig. 1A): 87.4466 and 108.341 and 104.406 and 103.147 and 93.157; cell vialibity normalized to Vehicle (DMSO) ([1]; dose 1.23457 μM, Fig. 1A): 87.9395 and 106.341 and 92.1504 and 97.7385 and 83.3333; cell vialibity normalized to Vehicle (DMSO) ([1]; dose 3.7037 μM, Fig. 1A): 96.5495 and 93.5206 and 91.1364 and 95.1622 and 83.8095; cell vialibity normalized to Vehicle (DMSO) ([1]; dose 11.1111 μM, Fig. 1A): 80.6934 and 86.1279 and 92.0804 and 88.6726 and 85.0088; cell vialibity normalized to Vehicle (DMSO) ([1]; dose 33.3333 μM, Fig. 1A): 52.5961 and 55.9883 and 48.1294 and 49.4985 and 42.8924; cell vialibity normalized to Vehicle (DMSO) ([1]; dose 100 μM, Fig. 1A): 27.933 and 27.6926 and 32.9196 and 27.237 and 25.2205; cell vialibity normalized to Vehicle (DMSO) ([1]; dose 300 μM, Fig. 1A): 19.208 and 32.8451 and 31.9056 and 30.1672 and 23.6508
